This note sets out measurements from the NIST ThermoML archive (doi:10.1016/j.tca.2008.03.009).

Numbers after ± are expanded uncertainties.

The data set in a line: molar heat capacity at constant pressure. The following applies: 328.1 K; 101.33 kPa; Crystal; Small sample (50 mg) DSC.

Turning to `[BH4-].[Na+]` [sodium tetrahydroborate], the “molar heat capacity at constant pressure” value is 111.61 ± 2.3 J/K/mol.
